Source: patent publication US20230346952A1, “CANNABINOID GLYCOSIDE PRODRUGS AND METHODS OF SYNTHESIS” (priority 2015, published 2023)

Experiments:
Experiment in all cases: biochemical
[1] = target: T1, safety screen panel of human pharmacological targets (Homo sapiens, UniProt P08908); conditions: read-out: percent inhibition: 5-HT1A(h) {agonist radiogilgand)
T1 sequence (P08908 1-422): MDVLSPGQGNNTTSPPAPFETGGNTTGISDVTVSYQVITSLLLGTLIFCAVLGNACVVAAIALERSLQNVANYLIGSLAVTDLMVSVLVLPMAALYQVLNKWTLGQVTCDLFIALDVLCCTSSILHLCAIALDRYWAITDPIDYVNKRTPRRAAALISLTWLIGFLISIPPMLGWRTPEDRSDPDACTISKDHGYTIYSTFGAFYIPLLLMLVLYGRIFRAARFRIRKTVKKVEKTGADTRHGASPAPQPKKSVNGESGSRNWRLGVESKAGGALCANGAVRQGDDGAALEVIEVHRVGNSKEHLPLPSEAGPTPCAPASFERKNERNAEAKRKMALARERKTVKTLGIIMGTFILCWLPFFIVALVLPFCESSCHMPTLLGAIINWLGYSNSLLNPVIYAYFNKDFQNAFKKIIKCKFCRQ

[2] = target: safety screen panel of human pharmacological targets (Homo sapiens, UniProt P22303); conditions: read-out: percent inhibition: acetylcholinesterase (h)
[3] = target: T2, safety screen panel of human pharmacological targets (Rattus norvegicus, UniProt P21396); conditions: read-out: percent inhibition: MAO-A (antagonist radioligand)
T2 sequence (P21396 1-526): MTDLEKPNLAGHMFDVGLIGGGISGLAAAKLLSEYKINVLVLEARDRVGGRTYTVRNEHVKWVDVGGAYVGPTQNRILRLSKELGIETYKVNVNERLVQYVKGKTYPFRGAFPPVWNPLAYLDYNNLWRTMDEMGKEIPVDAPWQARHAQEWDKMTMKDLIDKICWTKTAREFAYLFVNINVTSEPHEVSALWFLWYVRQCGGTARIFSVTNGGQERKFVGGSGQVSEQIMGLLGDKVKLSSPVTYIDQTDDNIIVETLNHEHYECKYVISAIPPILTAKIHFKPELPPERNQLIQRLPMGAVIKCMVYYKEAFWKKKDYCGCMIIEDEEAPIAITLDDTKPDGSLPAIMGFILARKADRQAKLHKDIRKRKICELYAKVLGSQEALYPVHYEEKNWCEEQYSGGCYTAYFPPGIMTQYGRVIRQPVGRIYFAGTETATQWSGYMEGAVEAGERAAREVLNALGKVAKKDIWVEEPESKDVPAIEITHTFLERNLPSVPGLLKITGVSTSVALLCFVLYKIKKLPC

[4] = target: safety screen panel of human pharmacological targets (Homo sapiens, UniProt P06239); conditions: read-out: percent inhibition: Lck kinase (h)
[5] = target: T3, safety screen panel of human pharmacological targets (Homo sapiens, UniProt P46098); conditions: read-out: percent inhibition: 5-HT3 (h) (antagonist radioligand)
T3 sequence (P46098 24-478): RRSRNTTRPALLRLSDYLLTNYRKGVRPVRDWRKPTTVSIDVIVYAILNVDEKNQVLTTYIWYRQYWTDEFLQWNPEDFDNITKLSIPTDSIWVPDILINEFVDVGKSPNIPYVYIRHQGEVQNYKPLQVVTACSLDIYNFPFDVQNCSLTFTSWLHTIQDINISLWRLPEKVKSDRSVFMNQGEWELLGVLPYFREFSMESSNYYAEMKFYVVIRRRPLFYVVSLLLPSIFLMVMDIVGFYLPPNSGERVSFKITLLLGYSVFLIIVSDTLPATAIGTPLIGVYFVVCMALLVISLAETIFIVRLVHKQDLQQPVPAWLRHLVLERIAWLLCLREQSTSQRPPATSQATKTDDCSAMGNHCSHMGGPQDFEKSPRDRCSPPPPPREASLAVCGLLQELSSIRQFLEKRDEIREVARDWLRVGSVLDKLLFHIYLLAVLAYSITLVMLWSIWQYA

[6] = target: safety screen panel of human pharmacological targets (Rattus norvegicus, UniProt P28564); conditions: read-out: percent inhibition: 5-HT1B (antagonist radioligand)
[7] = target: safety screen panel of human pharmacological targets (Homo sapiens, UniProt P25021); conditions: read-out: percent inhibition: H2 (h) (antagonist radioligand)
[8] = target: T4, safety screen panel of human pharmacological targets (Homo sapiens, UniProt P11229); conditions: read-out: percent inhibition: M1 (h) (antagonist radioligand)
T4 sequence (P11229 1-460): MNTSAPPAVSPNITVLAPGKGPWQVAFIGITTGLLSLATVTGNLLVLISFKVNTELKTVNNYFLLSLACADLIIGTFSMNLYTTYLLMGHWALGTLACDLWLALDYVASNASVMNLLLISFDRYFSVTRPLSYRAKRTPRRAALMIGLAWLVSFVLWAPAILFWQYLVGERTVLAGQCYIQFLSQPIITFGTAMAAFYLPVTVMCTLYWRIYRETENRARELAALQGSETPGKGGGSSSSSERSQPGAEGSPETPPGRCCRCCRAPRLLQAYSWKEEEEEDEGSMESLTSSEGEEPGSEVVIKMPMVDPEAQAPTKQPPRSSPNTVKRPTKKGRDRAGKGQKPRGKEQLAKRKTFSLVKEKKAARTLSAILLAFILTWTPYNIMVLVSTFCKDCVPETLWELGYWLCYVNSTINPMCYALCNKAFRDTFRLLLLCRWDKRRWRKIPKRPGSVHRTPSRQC

[9] = target: T5, safety screen panel of human pharmacological targets (Homo sapiens, UniProt P08172); conditions: read-out: percent inhibition: M2 (h) (antagonist radioligand)
T5 sequence (P08172 1-466): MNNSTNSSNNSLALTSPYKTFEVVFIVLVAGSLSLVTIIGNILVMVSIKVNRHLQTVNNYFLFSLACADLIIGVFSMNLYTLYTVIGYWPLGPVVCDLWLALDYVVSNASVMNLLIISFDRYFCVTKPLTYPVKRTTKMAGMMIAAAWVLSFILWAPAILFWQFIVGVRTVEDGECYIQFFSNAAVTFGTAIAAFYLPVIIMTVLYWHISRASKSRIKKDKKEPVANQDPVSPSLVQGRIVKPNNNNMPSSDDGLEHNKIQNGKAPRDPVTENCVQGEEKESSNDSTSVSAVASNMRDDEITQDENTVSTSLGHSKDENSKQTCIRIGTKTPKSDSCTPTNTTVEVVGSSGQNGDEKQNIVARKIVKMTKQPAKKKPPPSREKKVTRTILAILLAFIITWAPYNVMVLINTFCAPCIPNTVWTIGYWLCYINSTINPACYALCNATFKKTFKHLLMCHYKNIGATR

Chain of safety screen panel of human pharmacological targets (Homo sapiens, UniProt P22303) (P22303 32-614): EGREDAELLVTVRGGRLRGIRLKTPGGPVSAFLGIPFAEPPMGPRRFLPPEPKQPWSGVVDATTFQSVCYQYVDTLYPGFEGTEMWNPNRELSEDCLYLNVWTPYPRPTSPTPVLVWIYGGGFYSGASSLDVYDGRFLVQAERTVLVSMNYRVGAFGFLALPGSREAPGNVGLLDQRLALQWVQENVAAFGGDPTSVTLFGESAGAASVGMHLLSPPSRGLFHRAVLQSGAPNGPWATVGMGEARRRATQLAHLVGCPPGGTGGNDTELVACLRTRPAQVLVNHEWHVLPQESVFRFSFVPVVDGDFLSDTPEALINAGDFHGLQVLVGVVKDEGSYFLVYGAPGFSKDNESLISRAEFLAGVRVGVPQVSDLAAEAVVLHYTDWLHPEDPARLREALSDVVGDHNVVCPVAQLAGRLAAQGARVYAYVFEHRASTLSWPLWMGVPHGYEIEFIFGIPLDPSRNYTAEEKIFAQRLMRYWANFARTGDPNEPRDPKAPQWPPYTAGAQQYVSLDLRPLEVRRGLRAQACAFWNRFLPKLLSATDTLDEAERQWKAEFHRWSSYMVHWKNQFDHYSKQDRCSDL
Chain of safety screen panel of human pharmacological targets (Rattus norvegicus, UniProt P28564) (P28564 whole entry): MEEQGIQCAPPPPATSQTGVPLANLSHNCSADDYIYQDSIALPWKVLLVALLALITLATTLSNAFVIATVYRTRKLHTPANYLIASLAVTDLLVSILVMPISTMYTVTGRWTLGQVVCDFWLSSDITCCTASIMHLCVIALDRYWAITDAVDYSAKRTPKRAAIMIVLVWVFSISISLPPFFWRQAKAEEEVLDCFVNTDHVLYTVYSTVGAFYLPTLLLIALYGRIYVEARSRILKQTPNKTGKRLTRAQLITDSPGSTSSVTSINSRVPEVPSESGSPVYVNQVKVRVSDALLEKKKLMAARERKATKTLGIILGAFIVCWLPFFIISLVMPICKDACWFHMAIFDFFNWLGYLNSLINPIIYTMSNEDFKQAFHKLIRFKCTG
Chain of safety screen panel of human pharmacological targets (Homo sapiens, UniProt P06239) (P06239 whole entry): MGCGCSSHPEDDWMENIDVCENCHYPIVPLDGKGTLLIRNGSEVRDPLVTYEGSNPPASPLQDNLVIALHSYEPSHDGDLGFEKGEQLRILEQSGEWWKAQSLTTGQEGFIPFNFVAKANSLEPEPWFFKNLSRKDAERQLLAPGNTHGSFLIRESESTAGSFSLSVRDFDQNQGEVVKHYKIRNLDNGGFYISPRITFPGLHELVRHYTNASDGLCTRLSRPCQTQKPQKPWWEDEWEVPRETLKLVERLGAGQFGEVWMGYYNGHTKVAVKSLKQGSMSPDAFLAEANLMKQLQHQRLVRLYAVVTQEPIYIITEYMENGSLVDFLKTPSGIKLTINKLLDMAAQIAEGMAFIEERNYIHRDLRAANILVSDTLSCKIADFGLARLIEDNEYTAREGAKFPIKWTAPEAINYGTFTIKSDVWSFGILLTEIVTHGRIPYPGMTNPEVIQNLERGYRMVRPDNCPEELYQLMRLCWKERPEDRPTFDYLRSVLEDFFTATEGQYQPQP
Chain of safety screen panel of human pharmacological targets (Homo sapiens, UniProt P25021) (P25021 whole entry): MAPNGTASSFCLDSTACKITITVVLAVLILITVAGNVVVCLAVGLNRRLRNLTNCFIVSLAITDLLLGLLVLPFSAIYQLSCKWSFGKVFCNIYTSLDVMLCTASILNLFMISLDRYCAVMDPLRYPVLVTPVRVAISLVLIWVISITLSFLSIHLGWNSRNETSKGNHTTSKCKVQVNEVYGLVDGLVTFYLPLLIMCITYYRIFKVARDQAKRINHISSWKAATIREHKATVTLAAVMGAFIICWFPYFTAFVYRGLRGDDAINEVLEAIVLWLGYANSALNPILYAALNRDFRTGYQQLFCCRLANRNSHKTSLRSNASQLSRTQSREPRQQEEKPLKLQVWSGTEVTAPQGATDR

Row | Compound | inhibition at 10 µM [1] [%] | inhibition at 10 µM [2] [%] | inhibition at 10 µM [3] [%] | inhibition at 10 µM [4] [%] | inhibition at 10 µM [5] [%] | inhibition at 10 µM [6] [%] | inhibition at 10 µM [7] [%] | inhibition at 10 µM [8] [%] | inhibition at 10 µM [9] [%]
1 | CCCCCc1cc(O)c2c(c1)OC(C)(C)[C@@H]1CCC(C)=C[C@@H]21 [VB301, Δ9-Terahydrocannabinol, reference compound] | -27 | 30 | 1 | 15 | -21 | 26 | -6 | 20 | 21
2 | CCCCCc1cc(O[C@@H]2O[C@H](CO)[C@@H](O)[C@H](O)[C@H]2O)c2c(c1)OC(C)(C)[C@@H]1CCC(C)=C[C@@H]21 [VB302, Δ9THC-1-O-glucopyranoside] | 6 | -1 | 5 | -10 | -4 | -1 | -11 | -3 | 2
3 | CCCCCc1cc(O[C@@H]2O[C@H](CO[C@@H]3O[C@H](CO)[C@@H](O)[C@H](O)[C@H]3O)[C@@H](O[C@@H]3O[C@H](CO)[C@@H](O)[C@H](O)[C@H]3O)[C@H](O)[C@H]2O)c2c(c1)OC(C)(C)[C@@H]1CCC(C)=C[C@@H]21 [VB311] | -6 | 1 | 2 | 21 | -13 | -7 | -10 | -8 | -4
